In article PMC5029940, “High Throughput Random Mutagenesis and Single Molecule Real Time Sequencing of the Muscle Nicotinic Acetylcholine Receptor” (PLoS ONE, 2016):

Legend:
Format in all cases: cell-based
[1] = molecular target: T1, human muscle nicotinic acetylcholine receptor (nAChR), adult form, (α1)2β1δε (Homo sapiens, UniProt P02708+Q04844+Q07001); assay: Fluo-4 Ca2+ flux, FLIPR; conditions: read-out: α1-Wt / EC50
T1 construct: gene CHRNA1; full-length untagged subunits; CMV-alpha1 plasmid plus EF1alpha beta1-delta-epsilon triple plasmid, transient in HEK293; heteropentamer; with Acetylcholine receptor subunit beta
Excerpt: (§1) Fluo-4 Ca2+ flux, FLIPR on human muscle nicotinic acetylcholine receptor (nAChR), adult form, (α1)2β1δε

[2] = molecular target: T2, human muscle nicotinic acetylcholine receptor (nAChR), adult form, (α1)2β1δε (Homo sapiens, UniProt P02708+Q04844+Q07001, P02708:V275M); assay: Fluo-4 Ca2+ flux, FLIPR
T2 construct: gene CHRNA1; full-length untagged subunits; CMV-alpha1 plasmid plus EF1alpha beta1-delta-epsilon triple plasmid, transient in HEK293; heteropentamer; with Acetylcholine receptor subunit beta
Excerpt: as §1

[3] = molecular target: T3, human muscle nicotinic acetylcholine receptor (nAChR), adult form, (α1)2β1δε (Homo sapiens, UniProt P02708+Q04844+Q07001, P02708:Y233H); assay: Fluo-4 Ca2+ flux, FLIPR
T3 construct: gene CHRNA1; full-length untagged subunits; CMV-alpha1 plasmid plus EF1alpha beta1-delta-epsilon triple plasmid, transient in HEK293; heteropentamer; with Acetylcholine receptor subunit beta
Excerpt: as §1

[4] = molecular target: T4, human muscle nicotinic acetylcholine receptor (nAChR), adult form, (α1)2β1δε (Homo sapiens, UniProt P02708+Q04844+Q07001, P02708:Y233N); assay: Fluo-4 Ca2+ flux, FLIPR
T4 construct: gene CHRNA1; full-length untagged subunits; CMV-alpha1 plasmid plus EF1alpha beta1-delta-epsilon triple plasmid, transient in HEK293; heteropentamer; with Acetylcholine receptor subunit beta
Excerpt: as §1

[5] = molecular target: T1, human muscle nicotinic acetylcholine receptor (nAChR), adult form, (α1)2β1δε; assay: Fluo-4 Ca2+ flux, FLIPR, inhibition of epibatidine response
Target sequence in this assay (P02708 21-457): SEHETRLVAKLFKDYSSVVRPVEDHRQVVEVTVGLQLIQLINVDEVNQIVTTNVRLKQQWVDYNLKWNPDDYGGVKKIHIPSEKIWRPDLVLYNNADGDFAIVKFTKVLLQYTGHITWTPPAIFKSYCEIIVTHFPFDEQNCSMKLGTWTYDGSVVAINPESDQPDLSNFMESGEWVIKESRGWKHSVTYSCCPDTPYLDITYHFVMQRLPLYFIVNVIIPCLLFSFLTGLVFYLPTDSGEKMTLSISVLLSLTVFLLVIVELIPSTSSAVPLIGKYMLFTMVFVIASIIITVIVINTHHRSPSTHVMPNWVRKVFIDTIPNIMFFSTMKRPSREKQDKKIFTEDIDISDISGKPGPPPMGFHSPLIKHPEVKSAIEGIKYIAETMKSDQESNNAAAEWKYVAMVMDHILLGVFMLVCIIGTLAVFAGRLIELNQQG
Target sequence in this assay (Q07001 22-517): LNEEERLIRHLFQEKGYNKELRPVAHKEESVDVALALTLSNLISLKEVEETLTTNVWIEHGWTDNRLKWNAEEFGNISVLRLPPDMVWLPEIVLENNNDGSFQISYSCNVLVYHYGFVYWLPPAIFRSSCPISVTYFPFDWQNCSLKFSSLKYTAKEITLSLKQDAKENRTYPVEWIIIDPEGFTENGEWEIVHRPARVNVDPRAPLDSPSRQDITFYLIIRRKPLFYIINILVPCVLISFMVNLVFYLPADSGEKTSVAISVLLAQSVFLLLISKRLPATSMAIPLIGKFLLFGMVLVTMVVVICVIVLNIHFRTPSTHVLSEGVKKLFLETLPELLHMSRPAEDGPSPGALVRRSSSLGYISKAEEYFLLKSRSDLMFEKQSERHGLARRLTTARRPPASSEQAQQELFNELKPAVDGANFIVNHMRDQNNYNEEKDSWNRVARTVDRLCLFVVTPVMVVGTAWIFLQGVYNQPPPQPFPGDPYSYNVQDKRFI
Target sequence in this assay (Q04844 21-493): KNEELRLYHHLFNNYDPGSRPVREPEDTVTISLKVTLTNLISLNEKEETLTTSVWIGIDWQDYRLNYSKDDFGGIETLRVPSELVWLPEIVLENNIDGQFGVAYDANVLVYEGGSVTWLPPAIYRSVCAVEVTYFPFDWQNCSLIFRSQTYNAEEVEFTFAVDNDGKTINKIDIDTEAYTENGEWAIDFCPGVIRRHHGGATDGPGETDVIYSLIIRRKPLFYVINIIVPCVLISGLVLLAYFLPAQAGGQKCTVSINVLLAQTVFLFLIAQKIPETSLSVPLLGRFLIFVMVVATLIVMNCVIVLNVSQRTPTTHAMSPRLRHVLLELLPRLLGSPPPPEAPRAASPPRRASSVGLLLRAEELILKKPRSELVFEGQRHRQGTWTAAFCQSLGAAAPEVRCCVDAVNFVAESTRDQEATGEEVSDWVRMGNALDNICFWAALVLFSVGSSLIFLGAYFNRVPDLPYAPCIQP
Target sequence in this assay (P11230 24-501 partner): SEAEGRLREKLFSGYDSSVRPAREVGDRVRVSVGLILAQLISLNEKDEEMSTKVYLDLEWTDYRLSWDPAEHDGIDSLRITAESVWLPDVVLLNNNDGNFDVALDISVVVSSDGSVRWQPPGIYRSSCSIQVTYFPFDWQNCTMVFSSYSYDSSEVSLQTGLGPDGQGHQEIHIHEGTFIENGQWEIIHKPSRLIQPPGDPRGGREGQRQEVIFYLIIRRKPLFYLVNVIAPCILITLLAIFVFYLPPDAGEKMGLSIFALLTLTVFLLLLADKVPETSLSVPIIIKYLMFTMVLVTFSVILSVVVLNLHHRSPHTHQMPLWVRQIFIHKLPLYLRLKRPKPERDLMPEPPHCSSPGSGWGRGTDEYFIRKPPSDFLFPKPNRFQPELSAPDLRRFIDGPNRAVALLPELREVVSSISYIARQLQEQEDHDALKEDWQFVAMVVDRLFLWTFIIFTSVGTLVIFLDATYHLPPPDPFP

Row | SMILES | EC50 [1] | EC50 [2] | EC50 [3] | EC50 [4] | IC50 [5]
1 | O=c1cccc2n1C[C@@H]1CNC[C@H]2C1 [Cytisine] | 2350 ± 367 nM | 592 ± 153 nM | 650 ± 93 nM | 1180 ± 76 nM | 
2 | C[N+]1(C)CCN(c2ccccc2)CC1 [DMPP] | 1630 ± 203 nM | 67 ± 15 nM | 161 ± 10 nM | 705 ± 22 nM | 
3 | CN1CCC[C@H]1c1cccnc1 [Nicotine] | 3650 ± 1040 nM | 557 ± 226 nM | 1390 ± 117 nM | 1380 ± 96 nM | 
4 | COc1cc2c3cc1Oc1cc(ccc1O)C[C@@H]1c4c(cc(OC)c(O)c4Oc4ccc(cc4)C[C@@H]3N(C)CC2)CC[N+]1(C)C [tubocurarine] |  |  |  |  | 3200 ± 2400 nM
